Results on five compounds are retold here after patent USRE38962E1, “Diphenyl-triazole derivatives and their use as anti-gestative immuno-suppressant and anti-tumoral agents” (Geange Ltd., priority 1997, dated 2006).

The test system of data set [1] is Sheep Red Blood Cells (SRBC). The data set is described as follows: IgM antibody response to SRBC (direct plaque forming cells in spleen). The format is in vivo, B6D2F1 mice. The following applies: antigen SRBC, dosing day 0, 8.60 μmoles/Kg/day; vehicle 124 + 18; p < 0.01. As for the experimental part: (§1) In detail, the Antibody Response to Sheep Red Blood Cells (SRBC) and to Lipo-polysaccharide (LPS), was studied in B6D2F1 mice injected intravenously 10^8 SRBC (day 0). Direct (IgM) and indirect (IgG) plaque forming cells (PFC) were evaluated in the spleen 4 and 10 days later, Jerne et al. Science 140, 405 (1963) and Dresser and Wortis, Nature, 208, 859(1965).

Data set [2] can be described thus: Acute toxicity studies. The note with it: in vivo. As for the experimental part:
Acute toxicity studies did show as the lethal doses of compounds (VI), LD50>500 mg/kg, are of three order of magnitude higher than those anti-gestative.

In data set [3] the test system is grafts of skin from C3H (H-2^k) donor mice. As to the kind of experiment: Skin graft survival time (C3H donor onto C57B1/6 recipient). The format is in vivo, C57B1/6 mice. The following applies: dosing days −1, 7, 17.20 μmols/Kg/day; vehicle 10.7 + 0.4. As for the experimental part: For the Skin Grafting, fitted pinch, grafts of skin from C3H (H-2^k) donor mice were transplanted onto C57B1/6 (H-2^b) recipient mice (Mistrello et al,. 1984) Bandages were removed 7 days later and graft were scored daily by microscopy. Rejection was recorded when no viable epidermis remained. The median survival time (MST) of the grafts, measured as days, was calculated according to Litchfield (1949).

Data set [4] relates to human chorio-carcinoma. The data set is described as follows: Growth of human chorio-carcinoma transplanted into nude mice. The format is in vivo.
The subject of data set [5] is SRBC. As to the kind of experiment: Delayed type hypersensitivity (DTH), footpad swelling. The following applies: dosing day 0, 3.60 μmoles/Kg/day; vehicle 11.4 + 3.7. The format is in vivo, C57B1/6 mice. As for the experimental part:
Delayed Type hypersensitivity (DTH), was carried out in C57B1/6 mice administered subcutaneously 2×10^8 SRBC emulsified in complete Freund's adjuvant. Ten days later an eliciting dose of 10^8 SRBC was inoculated into a footpad. The DTH reaction was recorded 24 hours later by measuring the footpad swelling (Kerckhaert et al, i Cell Immunology, 29, 232, (1977).

Data set [6] relates to Beagle bitches. As to the kind of experiment: Contragestational effect in Beagle bitches after a single intramuscular dose. The following applies: for Pregnancy arrest (%): single i.m. 5 mg/kg (11.1 μmoles/kg). Format: in vivo. As for the experimental part: The compound was given intramuscularly in one depot site of the thigh muscle of the right hind leg dissolved in sesame oil at the dose of 5 mg/kg (11.1 μmoles/kg , […], 0.2 mL/kg). The anti-gestative effectiveness was ascertained by exploratory laparatomy examining uterine horns where the presence of live or dead foetuses was deduced from the dimension and appearance of each uterine swelling, for methodological reference see G. Galliani et al., J. Small Animal Practice, 25, 211-222 (1984).

The test system of data set [7] is Sheep Red Blood Cells (SRBC). The data set is described as follows: IgG antibody response to SRBC (indirect plaque forming cells in spleen). The following applies: dosing day 0, 2.15 μmoles/Kg/day; vehicle 24 + 3. Format: in vivo, B6D2F1 mice. As for the experimental part: as §1
(§2) Indirect PCF were developed with rabbit anti-serum to mouse gamma globulin. B6D2F1 mice were immunised with 20 μg LPS intra-peritoneally. Four days later, PCF were determined in the spleen by SRBC coated with LPS, Moller, Nature, 207, 1166(1965).

Data set [8] relates to Lipo-polysaccharide (LPS). As to the kind of experiment: IgM antibody response to LPS (plaque forming cells in spleen). The format is in vivo, B6D2F1 mice. The following applies: antigen LPS, dosing day 0, 8.60 μmoles/Kg/day; vehicle 10 + 2; p < 0.01. As for the experimental part: as §1, §2
Data set [9] deals with S.D. Rats. The data set is described as follows: Pregnancy termination activity in S.D. rats after a single subcutaneous injection at day 7 of gestation. Format: in vivo, Sprague Dawley rats. The following applies: single subcutaneous injection on day 7 of gestation; for ED50: Rattus norvegicus, sc, autopsy day 16, read-out: ED50 (dose terminating pregnancy, absence of live foetuses, in 50% of treated animals); for ED50 (dose terminating pregnancy in 50% of treated animals): autopsy day 16. As for the experimental part:
In particular, female Sprague Dawley rats weighing 200-230 g. were mated and the presence of sperm was detected, was considered day one of pregnancy.
Pregnancy was later confirmed at the time of autopsy by the presence of implantation sites in the uterus.
Test compounds dissolved in sesame oil containing 20% benzyl benzoate (or suspended if insoluble), were administered subcutaneously, in a single injection, on day 7 of gestation. The animals were then autopsied on day 16 of pregnancy and the uteri were examined for evidence of pregnancy (implantation sites, foetal resorption or live foetuses), haemorrhage, and evidence of abnormalities of the uterus, placenta or foetuses, for reference see G. Galliani et al. Contraception, 23, 163-180 (198).
These values identify the dose levels which terminate pregnancy (absence of live foetuses) in 50% of the treated animals.

SMILES strings stand for the structures. Marks after values point to notes of the source that are not given here. A value given as a limit tells only on which side of the number the result lay.

On to `CCCCCCCCOC(=O)OCc1ccccc1-c1n[nH]c(-c2cccc(OCC)c2)n1` [(VI)], for which the entries for the “PCF/spleen.10^−3 (mean = S.D.), IgM response” value in data set [1] and in data set [8] were 12 + 3* PCF/spleen.10^−3 and 3 + 1* PCF/spleen.10^−3, respectively. Also, the LD50 in [2] was > 500 mg/kg. For the same compound, the “MST, days (mean ± S. D.), skin graft median survival time” value in data set [3] was 15.1 + 0.6* days. In addition, in data set [4] (human chorio-carcinoma transplanted into nude mice), the “Potency compared with methotrexate” value was “even higher than that displayed by methotrexate”. Further, in [4] (transplanted into nude mice), the “Inhibition of the growth of human chorio-carcinoma” value is listed as “highly effective”. In addition, the “FOOTPAD SWELLING UNITS (Mean + S.D.), DTH” value in data set [5] was 5.2 + 1.2** UNITS. In addition, the “Pregnancy arrest (%)” value in [6] (administered day 15 of gestation) came out at 80%; in data set [6] (administered day 20 of gestation) it was 100%; in data set [6] (administered day 25 of gestation), 100%. In data set [6] (single intramuscular dose), the “Tolerability” value is given as “very well tolerated”. The “Anti-gestative effectiveness” value in data set [6] (single intramuscular dose between day of mating and 25th day of gestation) is on record as “highly effective”. The “PFC/SPLEEN.10^−3 (mean + S.D.), IgG response to SRBC” value in data set [7] is listed as 3 + 3* PFC/SPLEEN.10^−3. The ED50 in data set [9] was 2 mg/kg. Further, in data set [9], the “ED50 (dose terminating pregnancy in 50% of treated animals)” value was 4.4 µmol/kg.
Turning to `CCCCOC(=O)OCc1ccccc1-c1n[nH]c(-c2cccc(OCC)c2)n1` [(XIV)], in data set [9], the ED50 was 8 mg/kg and the “ED50 (dose terminating pregnancy in 50% of treated animals)” value worked out at 20.3 µmol/kg.
With `CCCCCCOC(=O)OCc1ccccc1-c1n[nH]c(-c2cccc(OCC)c2)n1` [(XVI)], in data set [9], the ED50 came out at 5 mg/kg and the “ED50 (dose terminating pregnancy in 50% of treated animals)” value was 11.8 µmol/kg.
Take `CCOc1cccc(-c2n[nH]c(-c3ccccc3CO)n2)c1` [D, 5-(2-Hydroxymethylphenyl)-3-(3-ethoxy-phenyl)-1H-1,2,4-triazole, reference compound]: in data set [9], the ED50 turned out to be 16 mg/kg and the “ED50 (dose terminating pregnancy in 50% of treated animals)” value is 54.6 µmol/kg.
Taken in the same sequence, the figures for `CCOC(=O)OCc1ccccc1-c1n[nH]c(-c2cccc(OCC)c2)n1` [(XV)] were 15 mg/kg and 27.2 µmol/kg.
